Data: patent publication US8309586B2, “Glucokinase activators and pharmaceutical compositions containing the same as an active ingredient” (LG Life Sciences Ltd., priority 2007, dated 2012)

The compounds below were run on Glucokinase known as hexokinase IV (human GK isoform 1, pancreas form and human GK isoform 2, liver form) (assay: Glucokinase enzymatic activity assay (G6PDH-coupled, NADH absorbance at 340 nm)). Details: 5 mM glucose, 1 mM ATP, 37 nM GK, 10 min at room temperature.
Assay type: biochemical
Procedure: Glucokinase known as hexokinase IV (human GK isoform 1, pancreas form and human GK isoform 2, liver form) was cloned into an expression vector pET15 fx (Novagen Co.), transformed to E. coli BL21 (DE3) (Invitrogen Co.) strain, expressed, and purified using a nickel column. Then, the glucokinase obtained from dialysis was used in the following assay.
Glucokinase assay was performed by measuring absorbance according to the conventional manner. Briefly speaking, glucokinase converts the substrate glucose to glucose-6-phosphate under certain conditions, and glucose-6-phosphate dehydrogenase irreversibly converts glucose-6-phosphate to gluconate-6-phosphate. During this procedure, NADH is formed, and its absorbance is measured to calculate the enzymatic activity.
In the measurement of the enzymatic activity, each compound was diluted by two-fold from the maximum to the minimum concentrations, and 2 μl of each solution was added to 96 well UV plate (BD bioscience). 60 μl of the first mixture (final concentrations 25 mM Hepes, 25 mM KCl, 2 mM MgCl2, 1 mM DTT) was added, and thoroughly mixed. 38 μl of the enzyme mixture (final concentrations 1 mM ATP, 1 mM NAD, 5 mM glucose, 0.85U G6PDH, 37 nM GK) was added (final volume 100 μl), and the mixture was reacted for 10 min at room temperature. The absorbance of NADH was measured at 340 nm using a UV spectrometer (Molecular Device).
The enzyme activating abilities of the compounds according to the present invention are represented as AC1.5 (the compound concentration at which the enzymatic activity is increased by 1.5 times, nM), which is in the range of 0.001 uM to 30 uM or less, preferably 0.001 uM to 10 uM, more preferably 0.001 uM to 1 uM.
For `OC[C@@H]1CSC(c2cc3cccc(NC4CCOC4)c3[nH]2)=N1` (stereo partly drawn) [Example 3, {(R)-2-[7-(tetrahydro-furan-3-ylamino)-1H-indol-2-yl]-4,5-dihydro-thiazol-4-yl}-methanol], the “AC1.5 (the compound concentration at which the enzymatic activity is increased by 1.5 times)” value was 184 nM. For `CS(=O)(=O)N1CCC(Nc2cccc3cc(C4=N[C@H](CO)CS4)[nH]c23)C1` (stereo partly drawn) [Example 4, {(R)-2-[7-(1-methanesulfonyl-pyrrolidin-3-ylamino)-1H-indol-2-yl]-4,5-dihydro-thiazol-4-yl}-methanol], the “AC1.5 (the compound concentration at which the enzymatic activity is increased by 1.5 times)” value was 217 nM. In the case of `OC[C@@H]1CSC(c2cc3cc(F)cc(NC4CCCC4)c3[nH]2)=N1` [Example 5, [(R)-2-(7-cyclopentylamino-5-fluoro-1H-indol-2-yl)-4,5-dihydro-thiazol-4-yl]-methanol], the “AC1.5 (the compound concentration at which the enzymatic activity is increased by 1.5 times)” value is reported as 7 nM. `OC[C@@H]1CSC(c2cc3cc(F)cc(NC4CCOCC4)c3[nH]2)=N1` [Example 6, {(R)-2-[5-fluoro-7-(tetrahydro-pyran-4-ylamino)-1H-indol-2-yl]-4,5-dihydro-thiazol-4-yl}-methanol] was tested, and the “AC1.5 (the compound concentration at which the enzymatic activity is increased by 1.5 times)” value was 31 nM. With `OC[C@@H]1CSC(c2cc3cc(Cl)cc(NC4CCCC4)c3[nH]2)=N1` [Example 7, [(R)-2-(5-chloro-7-cyclopentylamino-1H-indol-2-yl)-4,5-dihydro-thiazol-4-yl]-methanol] the “AC1.5 (the compound concentration at which the enzymatic activity is increased by 1.5 times)” value was 7 nM. For `OC[C@@H]1CSC(c2cc3cc(Cl)cc(NC4CCOCC4)c3[nH]2)=N1` [Example 8, {(R)-2-[5-chloro-7-(tetrahydro-pyran-4-ylamino)-1H-indol-2-yl]-4,5-dihydro-thiazol-4-yl}-methanol], the “AC1.5 (the compound concentration at which the enzymatic activity is increased by 1.5 times)” value was 32 nM. For `OC[C@@H]1CSC(c2cc3cc(Cl)cc(NC4CCSCC4)c3[nH]2)=N1` [Example 9, {(R)-2-[5-chloro-7-(tetrahydro-thiopyran-4-ylamino)-1H-indol-2-yl]-4,5-dihydro-thiazol-4-yl}-methanol], the “AC1.5 (the compound concentration at which the enzymatic activity is increased by 1.5 times)” value was 24 nM. With `OC[C@@H]1CSC(c2cc3cc(Br)cc(NC4CCCC4)c3[nH]2)=N1` [Example 10, [(R)-2-(5-bromo-7-cyclopentylamino-1H-indol-2-yl)-4,5-dihydro-thiazol-4-yl]-methanol] the “AC1.5 (the compound concentration at which the enzymatic activity is increased by 1.5 times)” value was 6 nM. `OC[C@@H]1CSC(c2cc3cc(Br)cc(NC4CCOCC4)c3[nH]2)=N1` [Example 11, {(R)-2-[5-bromo-7-(tetrahydro-pyran-4-ylamino)-1H-indol-2-yl]-4,5-dihydro-thiazol-4-yl}-methanol] was tested, and the “AC1.5 (the compound concentration at which the enzymatic activity is increased by 1.5 times)” value was 14 nM. `COc1cc(NC2CCCC2)c2[nH]c(C3=N[C@H](CO)CS3)cc2c1` [Example 12, [(R)-2-(7-cyclopentylamino-5-methoxy-1H-indol-2-yl)-4,5-dihydro-thiazol-4-yl]-methanol] was tested, and the “AC1.5 (the compound concentration at which the enzymatic activity is increased by 1.5 times)” value was 25 nM. `OC[C@@H]1CSC(c2cc3cc(Oc4cccnc4)cc(NC4CCCC4)c3[nH]2)=N1` [Example 13, {(R)-2-[7-cyclopentylamino-5-(pyridin-3-yloxy)-1H-indol-2-yl]-4,5-dihydro-thiazol-4-yl}-methanol] was tested, and the “AC1.5 (the compound concentration at which the enzymatic activity is increased by 1.5 times)” value was 12 nM. For `OC[C@@H]1CSC(c2cc3cc(Oc4cccnc4)cc(NC4CCOCC4)c3[nH]2)=N1` [Example 14, {(R)-2-[5-(pyridin-3-yloxy)-7-(tetrahydro-pyran-4-ylamino)-1H-indol-2-yl]-4,5-dihydro-thiazol-4-yl}-methanol], the “AC1.5 (the compound concentration at which the enzymatic activity is increased by 1.5 times)” value was 8 nM. For `c1cc(NC2CCCC2)c2[nH]c(C3=N[C@H](CN4CCCC4)CS3)cc2c1` [Example 15, cyclopentyl-[2-((R)-4-pyrrolidin-1-ylmethyl-4,5-dihydro-thiazol-2-yl)-1H-indol-7-yl]-amine], the “AC1.5 (the compound concentration at which the enzymatic activity is increased by 1.5 times)” value was 400 nM. For `c1cc(NC2CCCC2)c2[nH]c(C3=N[C@H](CN4CCOCC4)CS3)cc2c1` [Example 16, cyclopentyl-[2-((R)-4-morpholin-4-ylmethyl-4,5-dihydro-thiazol-2-yl)-1H-indol-7-yl]-amine], the “AC1.5 (the compound concentration at which the enzymatic activity is increased by 1.5 times)” value was 64 nM. In the case of `OC[C@@H]1CSC(c2cc3cc(Cn4cccn4)cc(NC4CCCC4)c3[nH]2)=N1` [Example 21, [(R)-2-[7-cyclopentylamino-5-pyrazol-1-ylmethyl-1H-indol-2-yl]-4,5-dihydro-thiazol-4-yl}-methanol], the “AC1.5 (the compound concentration at which the enzymatic activity is increased by 1.5 times)” value is reported as 16 nM. `OC[C@@H]1CSC(c2cc3cc(Cn4ccnc4)cc(NC4CCCC4)c3[nH]2)=N1` [Example 22, [(R)-2-(7-cyclopentylamino-5-imidazol-1-ylmethyl-1H-indol-2-yl)-4,5-dihydro-thiazol-4-yl}-methanol] was tested, and the “AC1.5 (the compound concentration at which the enzymatic activity is increased by 1.5 times)” value was 112 nM. In the case of `OC[C@@H]1CSC(c2cc3cc(Cc4cc[nH]c4)cc(NC4CCCC4)c3[nH]2)=N1` [Example 23, {(R)-2-[7-cyclopentylamino-5-(1H-pyrrol-3-ylmethyl)-1H-indol-2-yl]-4,5-dihydro-thiazol-4-yl}-methanol], the “AC1.5 (the compound concentration at which the enzymatic activity is increased by 1.5 times)” value is reported as 19 nM. `CS(=O)(=O)Cc1cc(NC2CCCC2)c2[nH]c(C3=N[C@H](CO)CS3)cc2c1` [Example 24, [(R)-2-(7-cyclopentylamino-5-methanesulfonylmethyl-1H-indol-2-yl)-4,5-dihydro-thiazol-4-yl]-methanol] was tested, and the “AC1.5 (the compound concentration at which the enzymatic activity is increased by 1.5 times)” value was 32 nM. In the case of `COC(=O)C[C@@H]1CSC(c2cc3cc(Cl)cc(NC4CCCC4)c3[nH]2)=N1` [Example 26, [(R)-2-(5-chloro-7-cyclopentylamino-1H-indol-2-yl)-4,5-dihydro-thiazol-4-yl]acetic acid methyl ester], the “AC1.5 (the compound concentration at which the enzymatic activity is increased by 1.5 times)” value is reported as 7 nM. `CCOC(=O)C[C@@H]1CSC(c2cc3cc(Cl)cc(NC4CCCC4)c3[nH]2)=N1` [Example 28, [(R)-2-(5-chloro-7-cyclopentylamino-1H-indol-2-yl)-4,5-dihydro-thiazol-4-yl]acetic acid ethyl ester] was tested, and the “AC1.5 (the compound concentration at which the enzymatic activity is increased by 1.5 times)” value was 8 nM. `COC(=O)C[C@@H]1CSC(c2cc3cc(Cl)cc(NC4CCOCC4)c3[nH]2)=N1` [Example 30, {(R)-2-[5-chloro-7-(tetrahydro-pyran-4-ylamino)-1H-indol-2-yl]-4,5-dihydro-thiazol-4-yl}acetic acid methyl ester] was tested, and the “AC1.5 (the compound concentration at which the enzymatic activity is increased by 1.5 times)” value was 28 nM. `O=C(O)C[C@@H]1CSC(c2cc3cc(Cl)cc(NC4CCOCC4)c3[nH]2)=N1` [Example 31, {(R)-2-[5-chloro-7-(tetrahydro-pyran-4-ylamino)-1H-indol-2-yl]-4,5-dihydro-thiazol-4-yl}-acetic acid] was tested, and the “AC1.5 (the compound concentration at which the enzymatic activity is increased by 1.5 times)” value was 16 nM. With `OCC[C@@H]1CSC(c2cc3cc(Br)cc(NC4CCCC4)c3[nH]2)=N1` [Example 34, 2-[(R)-2-(5-bromo-7-cyclopentylamino-1H-indol-2-yl)-4,5-dihydro-1,3-thiazol-4-yl]-ethanol] the “AC1.5 (the compound concentration at which the enzymatic activity is increased by 1.5 times)” value was 11 nM. In the case of `O=C(O)C[C@@H]1CSC(c2cc3cc(Br)cc(NC4CCOCC4)c3[nH]2)=N1` [Example 35, {(R)-2-[5-bromo-7-(tetrahydro-pyran-4-ylamino)-1H-indol-2-yl]-4,5-dihydro-thiazol-4-yl}-acetic acid], the “AC1.5 (the compound concentration at which the enzymatic activity is increased by 1.5 times)” value is reported as 6 nM.
